Assay results reported in patent US6368788B1 (priority 1987, dated 2002).
Marks after values point to notes of the source that are not given here.

Legend:
[1] = tested on: E-RFC; experiment: Increase in no. E-RFC in vitro after incubation with L-Glu-L-Trp (breast cancer patients); assay type: cell-based, human
Description: Thirty six patients with breast cancer were treated with conventional radiation therapy (i.e., single doses of about 2-3 Gy daily for 10 days; total cumulative patient dose of 20-30 Gy). Following radiotherapy the patients were treated with L-Glu-L-Trp by injection of daily dosages im of 100 μg. The patients had been previously treated with radiation therapy (single doses 2 Gy; total dose 20-30 Gy).
Ram erythrocytes (E) were washed 4× in saline (2000 rpm/10 min.) and suspended at a final concentration of 1% in Medium 199. For determinations of the percentage of E-rosette forming T-lymphocytes (E-RFC) in a sample, 0.1 mL of a prepared lymphocyte suspension (2.5×10^6/ml) was incubated with 0.1 mL of the 1% ram erythrocyte suspension at 37° C. for 10 min., centrifuged at 800-1000 rpm for 5 min., maintained at 4° C. for 2 hrs., and finally resuspended and counted in a Goryaev chamber. Activated T-lymphocytes (i.e., having increased E-RFC capacity) were determined by mixing the test lymphocyte suspension with E, immediately centrifuging for 5 min. at 800-1000 rpm, resuspending the cells and counting the rosettes formed in a Goryaev chamber.

[2] = tested on: influenza; experiment: Influenza treatments (Protocol E); parameters: species or system human; details: in vivo
Description: One hundred fifty-six patients (156) with influenza were treated with 100 μg L-Glu-L-Trp im or 1 μg/kg intranasally on each of 5-10 consecutive days. A control group constituted with entry of 82 influenza patients who remained untreated.

[3] = Dental caries: toothpaste containing L-Glu-L-Trp; assay type: in vivo, human
Description: The use of dental toothpaste containing L-Glu-L-Trp will have the secondary effect of reducing incidence and severity of gingival disease. Patients with odontogenic infections and periapical granulomas can be treated with 100 μg of L-Glu-L-Trp instilled into the foramen at the base of the tooth, or alternatively, L-Glu-L-Trp can be compounded in a filling paste which is packed into the base of the tooth.

[4] = Allogeneic skin grafts; parameters: species or system human; details: in vivo
Description: L-Glu-L-Trp was administered to 17 patients receiving allogeneic skin grafts. 27 patients receiving similar grafts and conventional care served as the control group. L-Glu-L-Trp was administered im as a single daily injection of 50-100 μg on each of 5 consecutive days, or alternatively, intranasally at a dose of 1 μg/kg daily for 5 days. Graft rejection was manifest in 8 of the control patients.

[5] = Transfusion reactions; parameters: species or system human; details: in vivo
Description: Seventy-six patients (76) requiring hemotransfusion therapy with allogeneic blood were treated with L-Glu-L-Trp in the post-operative period, starting at day 4-6 post-op. Seventy-two patients (72) in a control group received conventional post-operative treatment. L-Glu-L-Trp treatment was administered as a single daily im dose of 100 μg on each of 5 consecutive days, or alternatively, at a dose of 1 μg/kg delivered on the same schedule by the intranasal route.

[6] = tested on: human peripheral blood T-lymphocytes; experiment: OKT4+ and OKT8+ lymphocytes from patients with secondary immunodeficiency after in vitro incubation; assay type: cell-based; details: for OKT4^+/OKT8^+ ratio / mean percentage of T-helper (OKT4^+) lymphocytes / mean percentage of T-suppressor (OKT8^+) lymphocytes: 45 minutes at 37° C.
Source text: The effects of L-Glu-L-Trp on human peripheral blood T-lymphocytes was investigated using indirect immunofluorescence microscopy and OKT4 and OKT8 monoclonal antibodies (Ortho, USA) directed to lymphocyte cell surface differentiation antigens. For these studies lymphocytes were isolated from heparinized peripheral blood (25 units heparin/mL) isolated from 18 different donors with inflammatory lung diseases and chronic purulent bronchitis accompanied by a secondary immunodeficiency state. Lymphocytes were prepared by centrifugation on Ficoll-Hypaque, washed, and then incubated in vitro for 45 minutes at 37° C. in the presence (or absence) of L-Glu-L-Trp at concentrations of 1 mg/mL, 0.01 mg/mL, 0.0001 mg/mL. Following incubation the cells were washed with Medium 199 and the percentage of OKT4^+ (T-helper) and OKT8^+ (T-suppressor) lymphocytes determined by indirect immunofluorescent microscopy. The results presented in TABLE 51 show the mean percentages of OKT4^+ and OKT8^+ cells in this group of patients after incubation with Medium 199 (Control), or with L-Glu-L-Trp.

[7] = tested on: peripheral blood leukocytes; experiment: Peripheral blood leukocytes in cortisone suppressed rats; assay type: in vivo; details: for Basophils (% of Normal Control Value) / Basophils: % / Basophils: Total Cells / Eosinophils (% of Normal Control Value) / Eosinophils: % / Eosinophils: Total Cells / Leukocytes (% of Normal Control Value) / Leukocytes: Total Cells / Lymphocytes (% of Normal Control Value) / Lymphocytes: % / Lymphocytes: Total Cells / Monocytes (% of Normal Control Value) / Monocytes: % / Monocytes: Total Cells / Segmented Neutrophils (% of Normal Control Value) / Segmented Neutrophils: % / Segmented Neutrophils: Total Cells / Stab Neutrophils (% of Normal Control Value) / Stab Neutrophils: % / Stab Neutrophils: Total Cells: cortisone suppressed rats, 10 μg/kg im
Description: An immunocompromised state was established over a period of 80 days in experimental rats by administration of cortisone acetate at a dosage of 25 mg/kg twice weekly with tetracycline hydrocholoride po in drinking water. In the experimental group, L-Glu-L-Trp was administered in three treatment courses, each course consisting of 10 daily im injections of 10 μg/kg or 100 μg/kg, and each course of treatment separated from the next course by a 1 month interval. In the control group, saline was administered in the same three treatment course schedule. Differential blood counts were conducted on day 0 (Normal Control), day 59, and day 79 of the study. […] Results obtained with the 10 μg/kg treatment dose (presented in TABLE 73) were not markedly different than those obtained with the 100 μg/kg dose.

L-Glu-L-Trp
Increase in no. E-RFC in vitro after incubation with L-Glu-L-Trp ([1]; cells taken After L-Glu-L-Trp therapy): 1.27 ± 0.14 | Increase in no. E-RFC in vitro after incubation with L-Glu-L-Trp ([1]; cells taken After Radiotherapy): 1.19 ± 0.13 | Increase in no. E-RFC in vitro after incubation with L-Glu-L-Trp ([1]; cells taken Before Radiotherapy): 1.23 ± 0.15 | Clinical outcome [2]: accelerated alleviation of symptoms associated with influenza infection | Clinical outcome [3]: reduction of caries | Clinical outcome [4]: prevented infectious complications and delayed graft rejection | Clinical outcome [5]: None of L-Glu-L-Trp treated patients showed clinical manifestations of allogeneic hemotransfusion reactions | Percentage of detectable OKT8+ T-suppressor cells [6]: did not alter the percentage of detectable OKT 8^+ T-suppressor cells | Percentage of detectable T-helpers (OKT4+) ([6]; 1 and 0.01 mg/mL): increased the percentage of detectable T-helpers | OKT4^+/OKT8^+ ratio ([6]; Dose 0.0001 mg/ml): 1.1 | mean percentage of T-helper (OKT4^+) lymphocytes ([6]; Dose 0.0001 mg/ml): 25.4 ± 2.3 | mean percentage of T-suppressor (OKT8^+) lymphocytes ([6]; Dose 0.0001 mg/ml): 23.1 ± 2.1 | OKT4^+/OKT8^+ ratio ([6]; Dose 0.01 mg/ml): 1.8* | mean percentage of T-helper (OKT4^+) lymphocytes ([6]; Dose 0.01 mg/ml): 39.8 ± 2.4 | mean percentage of T-suppressor (OKT8^+) lymphocytes ([6]; Dose 0.01 mg/ml): 22.7 ± 1.8 | OKT4^+/OKT8^+ ratio ([6]; Dose 1 mg/ml): 1.9* | mean percentage of T-helper (OKT4^+) lymphocytes ([6]; Dose 1 mg/ml): 39.7 ± 2.7 | mean percentage of T-suppressor (OKT8^+) lymphocytes ([6]; Dose 1 mg/ml): 21.4 ± 1.3 | Peripheral blood cells vs saline treated controls ([7]; 10 μg/kg and 100 μg/kg): increased the number of leukocytes, monocytes, and lymphocytes in the peripheral blood of cortisone-suppressed rats | Basophils (% of Normal Control Value) ([7]; Day 59): (71%) | Basophils: % ([7]; Day 59): 0.4 ± 0.2% | Basophils: Total Cells ([7]; Day 59): 0.05 ± 0.03 × 10^3/mg | Eosinophils (% of Normal Control Value) ([7]; Day 59): (150%) | Eosinophils: % ([7]; Day 59): 4.3 ± 0.4 % | Eosinophils: Total Cells ([7]; Day 59): 0.6 ± 0.1 × 10^9/L | Leukocytes (% of Normal Control Value) ([7]; Day 59): (75%) | Leukocytes: Total Cells ([7]; Day 59): 12.4 ± 1.8 × 10^9/L | Lymphocytes (% of Normal Control Value) ([7]; Day 59): (11%) | Lymphocytes: % ([7]; Day 59): 57 ± 1.5 % | Lymphocytes: Total Cells ([7]; Day 59): 7 ± 1 × 10^9/L | Monocytes (% of Normal Control Value) ([7]; Day 59): (128%) | Monocytes: % ([7]; Day 59): 7 ± 0.9 % | Monocytes: Total Cells ([7]; Day 59): 0.92 ± 0.2 × 10^9/L | Segmented Neutrophils (% of Normal Control Value) ([7]; Day 59): (73%) | Segmented Neutrophils: % ([7]; Day 59): 26.7 ± 1 % | Segmented Neutrophils: Total Cells ([7]; Day 59): 3.3 ± 0.4 × 10^9/L | Stab Neutrophils (% of Normal Control Value) ([7]; Day 59): (100%) | Stab Neutrophils: % ([7]; Day 59): 4.7 ± 0.6% | Stab Neutrophils: Total Cells ([7]; Day 59): 0.6 ± 0.1 × 10^9/L | Basophils (% of Normal Control Value) ([7]; Day 79): (29%) | Basophils: % ([7]; Day 79): 0.3 ± 0.2% | Basophils: Total Cells ([7]; Day 79): 0.02 ± 0.02 × 10^3/mg | Eosinophils (% of Normal Control Value) ([7]; Day 79): (75%) | Eosinophils: % ([7]; Day 79): 4 ± 0.9% | Eosinophils: Total Cells ([7]; Day 79): 0.3 ± 0.1 × 10^9/L | Leukocytes (% of Normal Control Value) ([7]; Day 79): (49%) | Leukocytes: Total Cells ([7]; Day 79): 8.06 ± 0.9 × 10^9/L | Lymphocytes (% of Normal Control Value) ([7]; Day 79): (7.7%) | Lymphocytes: % ([7]; Day 79): 59 ± 2 % | Lymphocytes: Total Cells ([7]; Day 79): 4.7 ± 1 × 10^9/L | Monocytes (% of Normal Control Value) ([7]; Day 79): (100%) | Monocytes: % ([7]; Day 79): 8 ± 0.8 % | Monocytes: Total Cells ([7]; Day 79): 0.7 ± 0.1 × 10^9/L | Segmented Neutrophils (% of Normal Control Value) ([7]; Day 79): (44%) | Segmented Neutrophils: % ([7]; Day 79): 24.6 ± 1.3 % | Segmented Neutrophils: Total Cells ([7]; Day 79): 2 ± 2 × 10^9/L | Stab Neutrophils (% of Normal Control Value) ([7]; Day 79): (58%) | Stab Neutrophils: % ([7]; Day 79): 4.4 ± 0.7 % | Stab Neutrophils: Total Cells ([7]; Day 79): 0.35 ± 0.1 × 10^9/L
